Target: endogenous CGRP receptor (Homo sapiens, UniProt O60894+Q16602)
Assay: CGRP functional antagonism using SK-N-MC-BLA (4C10), β-lactamase transcriptional reporter assay
Format: cell-based
Conditions: SK-N-MC (4C10) cells, inhibition of β-lactamase expression in the presence of 200 pM CGRP
Text: Measuring CGRP Functional Antagonism Using SK-N-MC-BLA (4C10):
CGRP functional antagonism was characterized in a cell based transcriptional assay using a recombinant SK-N-MC line. To introduce the transcriptional reporter system, SK-N-MC cell line was transduced with a retroviral vector containing β-lactamase gene downstream of cAMP responsive promoter. The expression of β-lactamase is triggered by cAMP increase that is a downstream event of activation of endogenous CGRP receptor. Single clones were separated using Fluorescent Activated Cell Sorting (FACS) based on CGRP induced β-lactamase activity. β-lactamase activity was measured using a fluorescence energy transfer (FRET) dye, CCF4. […] To evaluate functional antagonist activity of compounds in SK-N-MC (4C10) line, compounds were evaluated for their inhibition of β-lactamase expression in the presence of CGRP.
SK-N-MC (4C10) was cultured in Minimal Essential Media (MEM) (Invitrogen) supplemented with 1 mM non-essential amino acids solution (Invitrogen), 100 units/ml Penicillin-Streptomycin (Invitrogen), 1 mM sodium pyruvate (Invitrogen) and 10% fetal bovine serum. For the β-lactamase assay, low serum, 1% FBS in MEM was used. 30,000 cells were plated into each wells of poly-D-lysine coated 384-well plate (Becton Dickinson) a day prior to the assay. SK-N-MC (4C10) was preincubated with compounds for 30 min before the addition of 200 pM CGRP. The assay was incubated for 3 hours at 37° C. to allow β-lactamase expression. CCF4 dye was added and incubated for 2 hours at room temperature. […] Curve fitting and IC50 calculation were carried about using MOD3.

endogenous CGRP receptor, sequence (Q16602 23-461): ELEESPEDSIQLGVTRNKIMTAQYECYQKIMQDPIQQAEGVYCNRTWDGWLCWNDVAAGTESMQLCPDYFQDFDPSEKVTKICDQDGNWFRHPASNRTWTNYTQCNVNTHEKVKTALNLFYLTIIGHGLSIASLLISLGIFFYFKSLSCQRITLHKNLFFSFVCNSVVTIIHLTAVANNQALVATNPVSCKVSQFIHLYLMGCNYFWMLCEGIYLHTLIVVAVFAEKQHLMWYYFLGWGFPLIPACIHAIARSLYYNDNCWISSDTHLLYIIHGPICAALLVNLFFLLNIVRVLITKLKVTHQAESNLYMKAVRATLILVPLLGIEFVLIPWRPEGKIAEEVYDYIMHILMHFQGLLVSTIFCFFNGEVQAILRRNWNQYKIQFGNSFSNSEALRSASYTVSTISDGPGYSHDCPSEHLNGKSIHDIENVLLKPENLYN
endogenous CGRP receptor, sequence (O60894 27-148): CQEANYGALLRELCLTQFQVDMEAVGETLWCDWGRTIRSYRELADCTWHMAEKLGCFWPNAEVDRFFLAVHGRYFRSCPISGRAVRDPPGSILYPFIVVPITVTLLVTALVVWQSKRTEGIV

| Compound | IC50 [nM] |
| --- | --- |
| Cc1c(F)cccc1C1SC(CC(=O)N2CCC(N3Cc4ccccc4NC3=O)CC2)C(=O)N1CCC(C)C (stereo not drawn) [Compound 267] | < 1000 |
| Cc1c(F)cccc1C1SC(CC(=O)N2CCC(N3CCc4ccccc4NC3=O)CC2)C(=O)N1CCC(C)C (stereo not drawn) [Compound 26] | < 1000 |
| CC(C)CCN1C(=O)C(CC(=O)N2CCC(N3CCc4ccccc4NC3=O)CC2)SC1[C@@H](C)c1ccccc1 (stereo partly drawn) [Compound 11] | < 1000 |
| CN1CCCN(c2ccccc2C2SC(CC(=O)N3CCC(N4CCc5ccccc5NC4=O)CC3)C(=O)N2CCC(C)(C)C)CC1 (stereo not drawn) [Compound 370] | < 1000 |
| CC(C)(C)CCN1C(=O)C(CC(=O)N2CCC(N3CCc4ccccc4NC3=O)CC2)SC1c1c[nH]cn1 (stereo not drawn) [Compound 313] | < 1000 |
| CC(C)CCN1C(=O)C(CC(=O)N2CCC(N3CCc4ccccc4NC3=O)CC2)SC1c1cccc(OC(F)(F)C(F)F)c1 (stereo not drawn) [Compound 247] | 1000 to 5000 |
| CC(C)CCN1C(=O)C(CC(=O)N2CCC(N3CCc4ccccc4NC3=O)CC2)SC1c1ccccc1OCc1ccccc1 (stereo not drawn) [Compound 65] | < 1000 |
| CN1CCN(c2ccccc2[C@@H]2S[C@](C)(CC(=O)N3CCC(N4Cc5ccccc5NC4=O)CC3)C(=O)N2CCC(C)(C)C)CC1 [Compound 333] | 1000 to 5000 |
| CC(C)(C)CCN1C(=O)C(CC(=O)N2CCC(N3Cc4ccccc4NC3=O)CC2)SC12c1ccccc1-c1ccccc12 (stereo not drawn) [Compound 309] | 1000 to 5000 |
| CN1C(=O)C(CC(=O)N2CCC(N3CCc4ccccc4NC3=O)CC2)SC1c1ccccc1 (stereo not drawn) [Compound 132] | 1000 to 5000 |
| CCCCCCCC1SC(CC(=O)N2CCC(N3CCc4ccccc4NC3=O)CC2)C(=O)N1CCC(C)C (stereo not drawn) [Compound 74] | 1000 to 5000 |
| CN1CCN(c2ccccc2C2SC(CC(=O)N3CCC(N4Cc5cccnc5NC4=O)CC3)C(=O)N2CCC(C)(C)C)CC1 (stereo not drawn) [Compound 320] | < 1000 |
| CC1=CCCC(C)C1C1SC(CC(=O)N2CCC(N3Cc4ccccc4NC3=O)CC2)C(=O)N1CCC(C)C (stereo not drawn) [Compound 100] | < 1000 |
| CC(C)N1CCN(c2c(F)cccc2[C@H]2S[C@@H](CC(=O)N3CCC(N4CCc5ccccc5NC4=O)CC3)C(=O)N2CCC(C)(C)C)CC1 [Compound 396] | 1000 to 5000 |
| CN(C)C1CCN(c2ccccc2C2SC(CC(=O)N3CCC(n4c(=O)[nH]c5ncccc54)CC3)C(=O)N2CCC(C)(C)C)CC1 (stereo not drawn) [Compound 418] | > 5000 |
| CCCN1C(=O)C(CC(=O)N2CCC(N3Cc4ccccc4NC3=O)CC2)SC1c1ccccc1 (stereo not drawn) [Compound 269] | 1000 to 5000 |
| CC(C)CCN1C(=O)C(CC(=O)N2CCC(c3cc4ccccc4[nH]c3=O)CC2)SC1c1ccccc1 (stereo not drawn) [Compound 249] | < 1000 |
| CC(C)N1CCN(c2ncccc2C2S[C@@H](CC(=O)N3CCC(N4CCc5ccccc5NC4=O)CC3)C(=O)N2CCC(C)(C)C)CC1 (stereo partly drawn) [Compound 444] | > 5000 |
| CC(C)(C)CCN1C(=O)C(CC(=O)N2CCC(Nc3ccc(Cl)cc3)CC2)SC1c1cccc(F)c1N1CCN(C(C)(C)C)CC1 (stereo not drawn) [Compound 448] | < 1000 |

| Compound | IC50 [nM] |
| --- | --- |
| CC(C)N1CCN(c2cccc(Cl)c2C2S[C@@H](CC(=O)N3CCC(n4c(=O)[nH]c5ncccc54)CC3)C(=O)N2CCC(C)(C)C)CC1 (stereo partly drawn) [Compound 438] | < 1000 |
| CN1CCN(c2ccccc2[C@H]2S[C@](C)(CC(=O)N3CCC(N4CCc5ccccc5NC4=O)CC3)C(=O)N2CCC(C)(C)C)CC1 [Compound 377] | 1000 to 5000 |
| COc1cccc(C2SC(CC(=O)N3CCC(N4Cc5ccccc5NC4=O)CC3)C(=O)N2CCC(C)C)c1 (stereo not drawn) [Compound 139] | 1000 to 5000 |
| CC(C)CCN1C(=O)C(CC(=O)N2CCC(N3Cc4ccccc4NC3=O)CC2)SC1C1CCCOC1 (stereo not drawn) [Compound 209] | < 1000 |
| CN1CCN(c2ccccc2[C@H]2S[C@](C)(CC(=O)N3CCC(N4Cc5ccccc5NC4=O)CC3)C(=O)N2CCC(C)(C)C)CC1 [Compound 334] | < 1000 |
| CN1CCN(c2c(F)cccc2C2SC(CC(=O)N3CCC(n4cc(-c5ccccc5)[nH]c4=O)CC3)C(=O)N2CCC(C)(C)C)CC1 (stereo not drawn) [Compound 325] | < 1000 |
| CC(C)(C)CCN1C(=O)C(CC(=O)N2CCC(N3Cc4ccccc4NC3=O)CC2)SC1c1cccc2cc[nH]c12 (stereo not drawn) [Compound 168] | 1000 to 5000 |
| O=C(CC1SC(C2CCCCC2)N(c2ccc(N3CCOCC3)cc2)C1=O)N1CCC(n2c(=O)[nH]c3ncccc32)CC1 (stereo not drawn) [Compound 425] | < 1000 |
| CC(C)CCN1C(=O)C(CC(=O)N2CCC(N3CCc4ccccc4NC3=O)CC2)SC1c1cc(C(F)(F)F)ccc1F (stereo not drawn) [Compound 13] | < 1000 |
| CCCOc1ccc(C2SC(CC(=O)N3CCC(N4Cc5ccccc5NC4=O)CC3)C(=O)N2CCC(C)C)cc1 (stereo not drawn) [Compound 103] | > 5000 |
| CCC(CC)C1SC(CC(=O)N2CCC(N3Cc4ccccc4NC3=O)CC2)C(=O)N1CCC(C)C (stereo not drawn) [Compound 151] | < 1000 |
| O=C(CC1SC(C2CCCCC2)N(c2ccccc2)C1=O)N1CCC(n2c(=O)[nH]c3ncccc32)CC1 (stereo not drawn) [Compound 424] | < 1000 |
| CC(C)CCN1C(=O)C(CC(=O)N2CCC(N3Cc4ccccc4NC3=O)CC2)SC1c1cccc(C(F)(F)F)c1F (stereo not drawn) [Compound 219] | 1000 to 5000 |
| CC(C)(C)CCN1C(=O)C(CC(=O)N2CCC(N3CCc4ccccc4NC3=O)CC2)SC1c1ccccc1N1CCN(CCO)CC1 (stereo not drawn) [Compound 372] | > 5000 |
| CC(C)CCN1C(=O)C(CC(=O)N2CCC(n3c(=O)[nH]c4ncccc43)CC2)SC1c1ccccc1 (stereo not drawn) [Compound 69] | < 1000 |
| CC(C)(C)CCN1C(=O)C(CC(=O)N2CCC(N3Cc4ccccc4NC3=O)CC2)SC1c1c(F)cccc1F (stereo not drawn) [Compound 25] | < 1000 |
| O=C(CC1SC(c2ccccc2)N(Cc2ccncc2)C1=O)N1CCC(n2c(=O)[nH]c3ccccc32)CC1 (stereo not drawn) [Compound 108] | > 5000 |
| CC(C)CCN1C(=O)C(CC(=O)N2CCC(N3Cc4ccccc4NC3=O)CC2)SC1c1ccc(N(C)C)cc1 (stereo not drawn) [Compound 124] | 1000 to 5000 |
| CC(C)(C)CCN1C(=O)[C@H](CC(=O)N2CCC(N3CCc4ccccc4NC3=O)CC2)SC1c1cccc(F)c1N1CCC(N)C1 (stereo partly drawn) [Compound 466] | < 1000 |

| Compound | IC50 [nM] |
| --- | --- |
| CC(C)CCN1C(=O)C(CC(=O)N2CCC(N3Cc4ccccc4NC3=O)CC2)SC12CCC(C(F)(F)F)CC2 (stereo not drawn) [Compound 253] | 1000 to 5000 |
| CN(C)C1CCN(c2c(F)cccc2[C@H]2S[C@@H](CC(=O)N3CCC(n4c(=O)[nH]c5ncccc54)CC3)C(=O)N2CCC(C)(C)C)C1 (stereo partly drawn) [Compound 455] | 1000 to 5000 |
| CC(C)N1CCN(c2c(F)cccc2C2SC(CC(=O)N3CCC(n4cc(-c5ccccc5)[nH]c4=O)CC3)C(=O)N2CCC(C)(C)C)CC1 (stereo not drawn) [Compound 342] | 1000 to 5000 |
| CC(C)CCN1C(=O)C(CC(=O)N2CCC(N3Cc4ccccc4NC3=O)CC2)SC1c1ccccc1N(C)C (stereo not drawn) [Compound 121] | < 1000 |
| CC(C)(C)CCN1C(=O)C(CC(=O)N2CCC(N3CCc4ccccc4NC3=O)CC2)SC1c1cccc(F)c1N1CC(F)(C2CC2)C1 (stereo not drawn) [Compound 411] | 1000 to 5000 |
| CN1CCN(c2c(Cl)cccc2C2SC(CC(=O)N3CCC(N4CCc5ccccc5NC4=O)CC3)C(=O)N2CCC(C)(C)C)CC1 (stereo not drawn) [Compound 356] | < 1000 |
| CC(C)(C)CCN1C(=O)C(CC(=O)N2CCC(N3CCc4ccccc4NC3=O)CC2)SC1c1ccccc1N1CCC(N2CCCCC2)CC1 (stereo not drawn) [Compound 384] | > 5000 |
| CC(C)N1CCN(c2c(F)cccc2[C@@H]2S[C@](C)(CC(=O)N3CCC(N4CCc5ccccc5NC4=O)CC3)C(=O)N2CCC(C)(C)C)CC1 [Compound 430] | > 5000 |
| COCC(C)N1C(=O)C(CC(=O)N2CCC(N3Cc4ccccc4NC3=O)CC2)SC1c1ccccc1 (stereo not drawn) [Compound 250] | > 5000 |
| O=C(CC1SC(c2ccc(F)cc2F)N(CC2CCCCC2)C1=O)N1CCC(N2Cc3ccccc3NC2=O)CC1 (stereo not drawn) [Compound 137] | < 1000 |
| CC(C)CCN1C(=O)C(CC(=O)N2CCC(N3Cc4ccccc4NC3=O)CC2)SC1c1c(F)cccc1Cl (stereo not drawn) [Compound 166] | < 1000 |
| O=C(CC1SC(c2ccccc2)N(Cc2ccncc2)C1=O)N1CCC(N2Cc3ccccc3NC2=O)CC1 (stereo not drawn) [Compound 46] | 1000 to 5000 |
| CN1CCN(c2ccc(F)cc2C2SC(CC(=O)N3CCC(N4CCc5ccccc5NC4=O)CC3)C(=O)N2CCC(C)(C)C)CC1 (stereo not drawn) [Compound 352] | < 1000 |
| CC(C)CCN1C(=O)C(C(C)C(=O)N2CCC(N3Cc4ccccc4NC3=O)CC2)SC1c1ccccc1 (stereo not drawn) [Compound 156, 3-(1-(2-(3-Isopentyl-4-oxo-2-phenylthiazolidin-5-yl)propanoyl)piperidin-4-yl)-3,4-dihydroquinazolin-2(1H)-one] | < 1000 |
| CC(C)(C)CCN1C(=O)C(CC(=O)N2CCC(N3Cc4ccccc4NC3=O)CC2)SC12CCSCC2 (stereo not drawn) [Compound 31] | < 1000 |
| Cc1cc(C2SC(CC(=O)N3CCC(N4Cc5ccccc5NC4=O)CC3)C(=O)N2CCC(C)(C)C)cc2cn[nH]c12 (stereo not drawn) [Compound 179] | < 1000 |
| CC(C)CCN1C(=O)C(CC(=O)N2CCC(N3CCc4ccccc4NC3=O)CC2)SC1c1ccc(F)c(F)c1 (stereo not drawn) [Compound 155] | < 1000 |
| CCCCN1CCN(c2ccccc2C2SC(CC(=O)N3CCC(n4c(=O)[nH]c5ncccc54)CC3)C(=O)N2CCC(C)(C)C)CC1 (stereo not drawn) [Compound 366] | < 1000 |
| CCCN1C(=O)[C@H](CC(=O)N2CCC(N3CCc4ccccc4NC3=O)CC2)SC1c1cccc(F)c1N1CCN(C(C)(C)C)CC1 (stereo partly drawn) [Compound 537] | < 1000 |

Reference: patent US8163737B2 (Vertex Pharmaceuticals Incorporated, priority 2006, dated 2012)
